Patent publication US20210122763A1, “OGA INHIBITOR COMPOUNDS” (Janssen Pharmaceutica NV, priority 2018, published 2021)
Where a name gives a salt, the structure may show the parent alone.

Legend:
OGA = target: T1, OGA (Homo sapiens, UniProt O60502); assay: OGA cellular assay (ICC detection of O-GlcNAcylated proteins in HEK293 cells inducible for P301L mutant human Tau); type: cell-based; conditions: 6 hours incubation; for Emax: HEK293, HEK293 cells inducible for P301L mutant human Tau, maximum = Thiamet G 200 uM; for EC50: HEK293 cells inducible for P301L mutant human Tau, read-out: Cellular hOGA, pEC50 (converted)
T1 construct: HEK293 cells inducible for P301L mutant human Tau (isoform 2N4R) were established at Janssen; endogenous in cells; host or cells: HEK293 cells inducible for P301L mutant human Tau (2N4R)
T1 sequence (O60502 1-916): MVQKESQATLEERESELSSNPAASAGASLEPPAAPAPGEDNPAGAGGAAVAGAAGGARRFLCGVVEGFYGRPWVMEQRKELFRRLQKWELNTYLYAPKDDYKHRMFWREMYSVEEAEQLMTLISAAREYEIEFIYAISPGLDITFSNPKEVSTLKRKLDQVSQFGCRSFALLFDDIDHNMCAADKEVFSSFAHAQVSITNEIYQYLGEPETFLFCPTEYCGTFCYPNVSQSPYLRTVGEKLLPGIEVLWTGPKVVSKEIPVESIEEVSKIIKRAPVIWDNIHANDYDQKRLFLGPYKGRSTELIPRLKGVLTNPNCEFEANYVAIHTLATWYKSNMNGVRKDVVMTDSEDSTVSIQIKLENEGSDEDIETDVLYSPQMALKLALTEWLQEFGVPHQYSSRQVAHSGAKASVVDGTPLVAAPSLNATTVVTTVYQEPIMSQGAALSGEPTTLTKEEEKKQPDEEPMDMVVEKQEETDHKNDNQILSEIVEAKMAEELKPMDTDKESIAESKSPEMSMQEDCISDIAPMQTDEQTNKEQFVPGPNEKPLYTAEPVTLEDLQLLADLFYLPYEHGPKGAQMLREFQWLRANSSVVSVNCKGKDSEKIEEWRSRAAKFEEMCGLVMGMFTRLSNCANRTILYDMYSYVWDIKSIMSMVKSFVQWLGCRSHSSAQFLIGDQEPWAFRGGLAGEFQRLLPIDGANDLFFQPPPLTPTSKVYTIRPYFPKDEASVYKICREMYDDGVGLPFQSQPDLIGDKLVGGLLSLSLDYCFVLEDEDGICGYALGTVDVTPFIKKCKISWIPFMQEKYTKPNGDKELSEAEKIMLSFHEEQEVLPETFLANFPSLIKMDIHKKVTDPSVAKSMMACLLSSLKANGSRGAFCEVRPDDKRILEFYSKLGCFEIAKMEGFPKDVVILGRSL
Summary of the method: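 HEK293 cells with inducible P301L 2N4R Tau, seeded in low-glucose medium, were exposed to compounds for 6 hours (0.2% DMSO), then PFA-fixed and stained with CTD110.6. Imaging intensity at 488 nm measured O-GlcNAcylation, with Hoechst nuclei counts for toxicity. IC50s came from non-linear regression, with Thiamet G at 200 uM as maximum inhibition.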

[1] = target: T2, recombinant human Meningioma Expressed Antigen 5 (MGEA5), also referred to as O-GlcNAcase (OGA) (Homo sapiens, UniProt O60502); assay: OGA biochemical assay (inhibition of FM-GlcNAc hydrolysis, fluorescence); conditions: for Emax: read-out: Enzymatic Emax (%); for IC50: read-out: Enzymatic hOGA, pIC50 (converted)
T2 construct: Full length OGA enzyme was purchased at OriGene (cat #TP322411); purchased OriGene TP322411
T2 sequence (O60502 1-916): T1 sequence (O60502 1-916)
Summary of the method: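 Full-length OGA at 2 nM was pre-incubated 60 min at room temperature with compound, then FM-GlcNAc at 100 uM final was added in citrate/phosphate buffer pH 7.2 with 0.005% Tween-20. After 6 h at room temperature, carbonate pH 11.0 stopped the reaction. Fluorescence read at 485/538 nm; IC50 and Hill coefficient from curve fit against no-inhibitor and saturating-standard controls.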

melting point [°C] | Emax (OGA) [%] | EC50 (OGA) [nM] | Emax [1] [%] | IC50 [1] [nM] | Structure (SMILES)
119.6 | 73 | 158 | 104 | 25.1 | CCOc1cc(OC2CCN(C(C)c3ccc4c(n3)OCCO4)CC2)cc(C)n1.Cl (stereo not shown) [Compound 142]
140.6 | 67 | 200 | 102 | 20 | Cc1ccc(OC2CCN(C(C)c3nc4c(cc3F)OCCO4)CC2)nc1C (stereo not shown) [Compound 156]
171.4 |  |  |  |  | Cc1cc(OC2CCN(C(C)c3ccc4c(n3)OCCO4)CC2)cc(C2CC2)n1 (stereo not shown) (as salt: HCl) [Compound 125]
66 |  |  |  |  | CCc1cc(OC2CCN(C(C)c3ccc4c(n3)OCCO4)CC2)cc(C)n1 (stereo not shown) (as salt: HCl) [Compound 129]
209.9 | 81 | 135 | 98 | 20 | Cc1ncc(NC2CCN(C(C)c3nc4c(cc3F)OCCO4)CC2)cn1 (stereo not shown) [Compound 127]
72.8 | 48 | > 1000 | 100 | 100 | Cc1ncc(OC2CCN(C(C)c3ccc4c(n3)OCCO4)CC2)cn1.Cl (stereo not shown) [Compound 90]
105.3 | 100 | 17.4 | 99 | 5.01 | Cc1cc(OC2CCN([C@H](C)c3nc4c(cc3F)CCO4)CC2)cc(C)n1 (single isomer, unassigned) [Compound 143]
134.6 | 86 | 200 | 105 | 15.8 | Cc1ncc(OC2CCN(C(C)c3nc4c(cc3F)OCCO4)CC2)cn1.Cl (stereo not shown) [Compound 91]
132.9 | 97 | 79.4 | 97 | 31.6 | Cc1ncc(COC2CCN(C(C)c3nc4c(cc3F)OCCO4)CC2)cn1 (stereo not shown) [Compound 135]
168 | 30 | > 1000 | 98 | 200 | Cc1ccc(OC2CCN(C(C)c3ccc4c(n3)OCCO4)CC2)nn1.Cl (stereo not shown) [Compound 151]
226.7 |  |  |  |  | Cc1ccc(OC2CCN(C(C)c3ccc4c(n3)OCCO4)CC2)cn1 (stereo not shown) (as salt: HCl) [Compound 41]
70.1 | 25 | > 1000 | 96 | 398 | Cc1ncc(COC2CCN([C@@H](C)c3nc4c(cc3F)OCCO4)CC2)cn1 (single isomer, unassigned) [Compound 137]
196.6 |  |  |  |  | Cc1cc(OC2CCN(C(C)c3ccc4c(n3)OCCO4)CC2)cc(OC(C)C)n1 (stereo not shown) (as salt: HCl) [Compound 124]
144.6 | 64 | 251 | 98 | 398 | Cc1cc(CC2CCN(C(C)c3ccc4c(n3)OCCO4)CC2)cc(C)n1 (stereo not shown) [Compound 140]
94.5 | 48 | 794 | 100 | 79.4 | CNC(=O)c1ccc(OC2CCN(C(C)c3ccc4c(n3)OCCO4)CC2)cn1 (stereo not shown) [Compound 122]
133 | 57 | 398 | 95 | 79.4 | CC(c1ccc2c(n1)OCCO2)N1CCC(Oc2ccc(C#N)nc2)CC1 (stereo not shown) [Compound 150]
250 | 87 | 50.1 | 97 | 25.1 | Cc1cc(NC2CCN(C(C)c3nc4c(cc3F)OCCO4)CC2)cc(C)n1 (stereo not shown) [Compound 133]

melting point [°C] | Emax (OGA) [%] | EC50 (OGA) [nM] | Emax [1] [%] | IC50 [1] [nM] | Structure (SMILES)
64.4 | 81 | 50.1 | 95 | 12.6 | Cc1ncc(COC2CCN(C(C)c3nc4c(cc3F)OCCO4)CC2)cn1 (single isomer, unassigned) [Compound 136]
189.8 |  |  |  |  | Cc1cc(OC2(CF)CCN(C(C)c3ccc4c(n3)OCCO4)CC2)cc(C)n1 (stereo not shown) (as salt: HCl) [Compound 132]
138 | 73 | 63.1 | 99 | 25.1 | Cc1ccc(NC2CCN(C(C)c3nc4c(cc3F)OCCO4)CC2)cn1 (stereo not shown) [Compound 126]
139.7 |  |  |  |  | CC(c1nc2c(cc1F)OCCO2)N1CCC(Oc2ccc(C(=O)N(C(C)C)C(C)C)nc2)CC1 (stereo not shown) (as salt: HCl) [Compound 123]
186.4 |  |  |  |  | Cc1cc(OC2CCN(C(C)c3ccc4c(n3)OCCO4)CC2)cc(C(C)C)n1 (stereo not shown) (as salt: HCl) [Compound 130]
153.41 | 87 | 158 | 96 | 10 | Cc1nc(OC2CCN(C(C)c3nc4c(cc3F)OCCO4)CC2)ccc1C#N (stereo not shown) [Compound 112]
208.1 | 31 | > 1000 | 95 | 200 | Cc1ncc(OC2CCN(C(C)c3ccc4c(n3)OCCC4)CC2)cn1.Cl (stereo not shown) [Compound 139]
213.2 | 15 | > 1000 | 100 | 794 | Cc1ncc(OC2CCN(C(C)c3ccc4c(c3)OCO4)CC2)cn1.Cl (stereo not shown) [Compound 30]
103.27 |  |  |  |  | Cc1cc(OC2CCN([C@@H](C)c3nc4c(cc3F)CCO4)CC2)cc(C)n1 (single isomer, unassigned) (as salt: HCl) [Compound 145]
91.71 | 36 | > 1000 | 99 | 79.4 | Cc1cncc(OC2CCN(C(C)c3ccc4c(n3)OCCO4)CC2)n1 (stereo not shown) [Compound 76]
119.6 | 51 | 794 | 97 | 200 | Cc1cnc(OC2CCN(C(C)c3ccc4c(n3)OCCO4)CC2)cn1 (stereo not shown) [Compound 141]
161.44 | 83 | 126 | 96 | 15.8 | Cc1cc(OC2CCN(C(C)c3nc4c(cc3F)OCCO4)CC2)ncc1C#N (stereo not shown) [Compound 113]
255.75 |  |  |  |  | Cc1cc(OC2CCN([C@H](C)c3nc4c(cc3F)OCCO4)CC2)cc(C)n1 (single isomer, unassigned) (as salt: HCl) [Compound 148]
 | 77 | 251 | 99 | 15.8 | CC(c1nc2c(cc1F)OCCO2)N1CCC(Oc2ccc(C(F)(F)F)cn2)CC1 (stereo not shown) [Compound 158]
278.4 | 21 | > 1000 | 96 | 794 | Cc1ccc(OC2CCN(C(C)c3ccc4c(c3)OCO4)CC2)cn1.Cl (stereo not shown) [Compound 31]
 | 9 | > 1000 | 95 | 1000 | CC(c1ccc2c(n1)OCCO2)N1CCC(Oc2ncccc2C#N)CC1 (stereo not shown) [Compound 50]
